This is an account of results in PubChem BioAssay AID686932 (Sanford-Burnham Center for Chemical Genomics, 2013).

Molecules are shown by their SMILES. Several values for one entry are separate records, joined by “and”; a condition that tells them apart may be missing. Identical values can stand only once. Activity calls are given as the source filed them.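 The calls were made as follows: active = IC50 against MMP-2 at or below 100 µM; inactive = the rest.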

Chain of 72 kDa type IV collagenase (Homo sapiens) (P08253 whole entry, looked up): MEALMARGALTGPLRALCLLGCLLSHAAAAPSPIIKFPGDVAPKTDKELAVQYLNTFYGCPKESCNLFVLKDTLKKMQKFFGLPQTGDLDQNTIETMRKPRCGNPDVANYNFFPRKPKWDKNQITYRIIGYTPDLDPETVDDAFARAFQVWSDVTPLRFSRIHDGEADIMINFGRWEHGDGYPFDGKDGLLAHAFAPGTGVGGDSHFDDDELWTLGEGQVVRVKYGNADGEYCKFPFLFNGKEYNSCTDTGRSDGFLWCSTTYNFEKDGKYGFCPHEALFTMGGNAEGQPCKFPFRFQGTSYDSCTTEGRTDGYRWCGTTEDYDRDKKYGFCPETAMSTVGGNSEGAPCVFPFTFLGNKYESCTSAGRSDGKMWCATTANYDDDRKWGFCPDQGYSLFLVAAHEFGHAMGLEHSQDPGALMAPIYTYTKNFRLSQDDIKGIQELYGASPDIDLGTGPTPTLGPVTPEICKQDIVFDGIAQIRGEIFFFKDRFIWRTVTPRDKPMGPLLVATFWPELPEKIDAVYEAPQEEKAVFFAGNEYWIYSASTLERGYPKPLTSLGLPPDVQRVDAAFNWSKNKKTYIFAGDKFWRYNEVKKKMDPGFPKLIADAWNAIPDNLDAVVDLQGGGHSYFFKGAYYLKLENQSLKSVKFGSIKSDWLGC

This experiment concerns the target 72 kDa type IV collagenase (Homo sapiens) (UniProt P08253). Description: MMP-2 inhibition counter-screen for RPN11 hits, SAR follow-up, counter-screen for RPN11 inhibitor project, biochemical, fluorescence (AID 686932). Particulars: recombinant MMP-2, FRET peptide cleavage fluorescence.
For `O=C(Sc1cccc2cccnc12)c1ccc(F)c(F)c1`, the IC50 was > 99 µM (inactive).

As for `O=C(Sc1cccc2cccnc12)c1ccccc1Cl`, the IC50 was > 99 µM (inactive).

As for `O=C(Sc1cccc2cccnc12)c1ccccc1`, the IC50 was 21.8 µM.

Take `COc1ccc(C(=O)Sc2cccc3cccnc23)cc1`: the IC50 was 16.2 µM.

As for `COC(=O)c1cnc2c(SSc3cccc4cc(C(=O)OC)cnc34)cccc2c1`, the IC50 is 24 µM.

As to `O=C(Sc1cccc2cccnc12)c1cccc2ccccc12`, the IC50 is 29.3 µM.

As to `Cc1cccc(C(=O)Sc2cccc3cccnc23)c1`, the IC50 is 38.5 µM.

Turning to `COc1ccc(C(=O)Sc2cccc3cccnc23)cc1OC`, the IC50 is > 99 µM (inactive).

For `O=C(Sc1cccc2cccnc12)c1ccccc1OC(F)(F)F`, the IC50 was > 99 µM (inactive).

Take `N#Cc1ccc(C(=O)Sc2cccc3cccnc23)cc1`: the IC50 is 3.38 µM.

As for `Cc1ccccc1C(=O)Sc1cccc2cccnc12`, the IC50 is > 99 µM (inactive).

For the compound `Cc1ccc(C(=O)Sc2cccc3cccnc23)cc1`, the IC50 is > 99 µM (inactive).

In the case of `O=C(O)[C@@H]1CCCN1C(=O)c1cnc2c(SSc3cccc4cc(C(=O)N5CCC[C@H]5C(=O)O)cnc34)cccc2c1`, the half-inhibitory concentration (IC50) is 16.3 µM.

For the compound `COC(=O)C[C@H](NC(=O)c1cnc2c(SSc3cccc4cc(C(=O)N[C@@H](CC(=O)OC)C(=O)OC)cnc34)cccc2c1)C(=O)OC`, the IC50 was > 99 µM (inactive).

Take `O=C(Sc1cccc2cccnc12)c1cccc(Cl)c1`: the IC50 is > 99 µM (inactive).

Consider `O=C(Sc1cccc2cccnc12)c1ccc(C(F)(F)F)cc1`, for which the IC50 is > 99 µM (inactive).

Consider `O=C(Sc1cccc2cccnc12)c1ccc([N+](=O)[O-])cc1`, for which the IC50 was > 99 µM (inactive).

For the compound `CC(C)[C@H](NC(=O)c1cnc2c(SSc3cccc4cc(C(=O)N[C@H](C(=O)O)C(C)C)cnc34)cccc2c1)C(=O)O`, the IC50 is > 99 µM (inactive).

In the case of `O=C(Sc1cccc2cccnc12)c1c(Cl)cccc1Cl`, the IC50 is 8.92 µM.

Turning to `COC(=O)[C@H](CC(C)C)NC(=O)c1cnc2c(SSc3cccc4cc(C(=O)N[C@@H](CC(C)C)C(=O)OC)cnc34)cccc2c1`, the IC50 is > 99 µM (inactive).

Take `CC[C@@H](C)[C@H](NC(=O)c1cnc2c(SSc3cccc4cc(C(=O)N[C@H](C(=O)O)[C@H](C)CC)cnc34)cccc2c1)C(=O)O`: the IC50 is 20.2 µM.

Take `COC(=O)[C@@H](NC(=O)c1cnc2c(SSc3cccc4cc(C(=O)N[C@H](C(=O)OC)C(C)C)cnc34)cccc2c1)C(C)C`: the IC50 is > 99 µM (inactive).

Consider `O=C(Sc1cccc2cccnc12)c1ccccc1[N+](=O)[O-]`, for which the IC50 entry was “inactive”.

Regarding `CC(C)Cc1ccc(C(=O)Sc2cccc3cccnc23)cc1`, the IC50 is > 99 µM (inactive).

Consider `CCOc1ccccc1C(=O)Sc1cccc2cccnc12`, for which the concentration for half-maximal inhibition (IC50) is 17 µM and > 99 µM (inactive).

For `COC(=O)[C@H](CO)NC(=O)c1cnc2c(SSc3cccc4cc(C(=O)N[C@@H](CO)C(=O)OC)cnc34)cccc2c1`, the IC50 is > 99 µM (inactive).

As for `O=C(Sc1cccc2cccnc12)c1cccc(C(F)(F)F)c1`, the IC50 is > 99 µM (inactive).

For the compound `COC(=O)[C@@H]1CCCN1C(=O)c1cnc2c(SSc3cccc4cc(C(=O)N5CCC[C@H]5C(=O)OC)cnc34)cccc2c1`, the IC50 was > 99 µM (inactive).

As to `O=C(Sc1cccc2cccnc12)c1ccc2c(c1)OCO2`, the IC50 was > 99 µM (inactive).

On to `N#Cc1cccc(C(=O)Sc2cccc3cccnc23)c1`, for which the IC50 was > 99 µM (inactive).

As to `CCCc1ccc(C(=O)Sc2cccc3cccnc23)cc1`, the IC50 is 7.85 µM.

Take `O=C(Sc1cccc2cccnc12)c1ccccc1I`: the IC50 is 7.06 µM.

For `CC(C)C[C@H](NC(=O)c1cnc2c(SSc3cccc4cc(C(=O)N[C@@H](CC(C)C)C(=O)O)cnc34)cccc2c1)C(=O)O`, the IC50 is 9.21 µM.

As for `CC(C)(C)OC(=O)CCNC(=O)c1cnc2c(SSc3cccc4cc(C(=O)NCCC(=O)OC(C)(C)C)cnc34)cccc2c1`, the IC50 was > 99 µM (inactive).

For the compound `COc1ccccc1C(=O)Sc1cccc2cccnc12`, the IC50 is > 99 µM (inactive).

Regarding `COc1ccc(C(=O)Sc2cccc3cccnc23)cc1F`, the IC50 is > 99 µM (inactive).

`O=C(Sc1cccc2cccnc12)c1ccc(F)cc1`: the IC50 was > 99 µM (inactive).

Take `COC(=O)[C@H](C)NC(=O)c1cnc2c(SSc3cccc4cc(C(=O)N[C@@H](C)C(=O)OC)cnc34)cccc2c1`: the IC50 was > 99 µM (inactive).

As for `O=C(Sc1cccc2cccnc12)c1ccccc1F`, the IC50 is > 99 µM (inactive).

Consider `COc1cccc(C(=O)Sc2cccc3cccnc23)c1`, for which the IC50 was > 99 µM (inactive).

Consider `COC(=O)[C@H](C)N(C)C(=O)c1cnc2c(SSc3cccc4cc(C(=O)N(C)[C@@H](C)C(=O)OC)cnc34)cccc2c1`, for which the IC50 is > 99 µM (inactive).

`O=C(O)c1cnc2c(SSc3cccc4cc(C(=O)O)cnc34)cccc2c1`: the IC50 is > 99 µM (inactive).

With `CC[C@@H](C)[C@H](NC(=O)c1cnc2c(SSc3cccc4cc(C(=O)N[C@H](C(=O)OC)[C@@H](C)CC)cnc34)cccc2c1)C(=O)OC`, the IC50 is > 99 µM (inactive).

Regarding `COC(=O)[C@H](C)NC(=O)c1ccnc2c(SSc3cccc4c(C(=O)N[C@@H](C)C(=O)OC)ccnc34)cccc12`, the IC50 is > 99 µM (inactive).

Take `O=C(Sc1cccc2cccnc12)c1ccccc1Br`: the IC50 is > 99 µM (inactive).

In the case of `C[C@@H](C(=O)O)N(C)C(=O)c1cnc2c(SSc3cccc4cc(C(=O)N(C)[C@@H](C)C(=O)O)cnc34)cccc2c1`, the IC50 is > 99 µM (inactive).

On to `O=C(Sc1cccc2cccnc12)C1CCCCC1`, for which the IC50 is 20.5 µM.

Turning to `O=C(Sc1cccc2cccnc12)c1ccc(F)cc1F`, the IC50 was 9.07 µM.
